According to patent US5635519A, “Benzothiazole compounds which are substituted by pyridymethyl” (Eisai Co., Ltd., priority 1991, dated 1997):
pIC50: −log10 of the molar value. Entries after “also recorded” stand apart in the source; their conditions may differ. Counter-ions that a name gives are not always drawn.

Assays:
PGE2 [1] = experiment: Effect on production of prostaglandin E2 (PGE2) from rat peritoneal exudation cells; format: cell-based; settings: A23187 2 μg/ml
Procedure: (§1) After 20 to 24 hours, peritoneal exudation cells were collected from the rats, washed and suspended in the Hank's buffer salt solution (HESS) at a concentration of 5×10^6 /ml. Then 100 μl/well of the obtained cell suspension was […] into a 96-well culture plate (Costar^R) containing 10 μl/well of a sample drug diluted to a given concentration. The plate was incubated at 37° C. for 5 minutes and A23187 (CALBIOCHEM®) was added thereto so as to give a final concentration of 2 μg/ml. After incubating at 37° C. for additional 10 minutes, the plate was transferred on ice and a B[…] solution was added thereto so as to give a final concentration of 100 μM. This plate was centrifuged at 15,000 rpm for 10 minutes and the supernatant was collected. Then the LTB4, TxB2 and PGE2 present in the supernatant were determined by enzyme immunoassay with the use of an EIA Kit manufactured by CAYMAN.

PGE2 [2] = experiment: Suppressing production and liberation of PGE2 from TNB-colitis rat colon; format: in vivo; settings: 100 mg/kg oral, 6 hours, A23187 5 μg/ml
Procedure: (§2) Functions of suppressing production and liberation of LTB4 and TxB2 from TNB (trinitrobenzenesulfonic acid)-colitis rat colon Rat TNB-colitis was induced in accordance with the method reported by Morris et al. [Gastroenterology, 96, 795-803 (1989)]. Namely, each of male F344 rats aged 9 weeks was fasted for 2 days and then etherized. A sound (1.2×80 mm, manufactured by Fuehigami Kikai-ten) was inserted into the rectum of the animal to inject 0.25 ml of a 120 mg/ml solution of TNB (a product of Tokyo Kasei K. K.) in 50% ethanol into the colon cavity. The effects of each compound on the production and liberation of LTB4 and TxB2 from the colon of the TNB-colitis rat were evaluated by using the rat 7 days after the injection of TNB. Namely, each compound (5% suspension in methylcellulose) was orally administered to the rat in a dose of 0.5 ml/100 g body weight. After 6 hours, the animal was deeply deeply etherlzed and subjected to autopsy. Thus the colon tissue was extirpated. The colon was incubated in Tyrode's solution (CALBIOCHEM containing 5 μg/ml of A23187-calcium ionophore) at 37° C. for 20 minutes in accordance with the method of […] et al. [Biochim. Biophys. Acta, 878, 184-193 (1986)]. Then LTB4, TxB2 and PGE2 thus produced and liberated into the medium were determined by radioimmunoassay (RXA).

TxB2 [3] = experiment: Suppressing production and liberation of TxB2 from TNB-colitis rat colon; format: in vivo; settings: 100 mg/kg oral, 6 hours, A23187 5 μg/ml
Procedure: as §2

LTB4 [4] = experiment: Suppressing production of leukotriene B4 (LTB4) from rat peritoneal exudation cells; format: cell-based; settings: A23187 2 μg/ml, read-out: Production suppressing function IC50, LTB4
Procedure: as §1

TxB2 [5] = experiment: Suppressing production of thromboxane B2 (TxB2) from rat peritoneal exudation cells; format: cell-based; settings: A23187 2 μg/ml, read-out: Production suppressing function IC50, TxB2
Procedure: as §1

LTB4 [6] = experiment: Suppressing production and liberation of LTB4 from TNB-colitis rat colon; format: in vivo; settings: 100 mg/kg oral, 6 hours, A23187 5 μg/ml
Procedure: as §2

TNB-colitis = experiment: Therapeutic effects on TNB-colitis (MPO in colon); format: in vivo, rat; settings: once a day for 11 days
Procedure: Therapeutic effects on TNB-colitis
Rat TNB-colitis was induced in accordance with the method reported by Morris et al. [Gastroenterology, 96, 795-808 (1989)]. Namely, each of male F344 rats aged 9 weeks was fasted for 2 days and then etherized. A sound (1.2×80 mm, manufactured by Fuchigami Kikai-ten) was inserted into the rectum of the animal to inject 0.25 ml of a 120 mg/ml solution of TNB (a product of Tokyo Kasei K. K.) in 50% ethanol into the colon cavity. 3 days after the injection of TNB, each compound (5% suspension in methylcellulose) was orally administered once a day for 11 days. 14 days after the injection of TNB, the animal was subjected to autopsy and the colon was extirpated. The extent of damage to the colon was evaluated by determining MPO (myeloperoxidase) present therein.
The therapeutic ratio was calculated according to the following equation:
therapeutic ratio=(5% methylcellulose group-ethanol group)-(invention
compound group-ethanol group).

rats = experiment: Toxicity test, 28 days repeated administration; format: in vivo, rat; settings: 200 mg/kg once a day for 28 days

pIC50 (LTB4 [4]) | pIC50 (TxB2 [5]) | SMILES | Production suppressing function, PGE2 (in words) (PGE2 [1]) | Suppression ratio (%), PGE2 (PGE2 [2]) [%] | Suppression ratio (%), TxB2 (TxB2 [3]) [%] | Suppression ratio (%), LTB4 (LTB4 [6]) [%] | Therapeutic ratio (%) (TNB-colitis; 100 mg/kg/day oral) | abnormality caused by the administration (rats) | Production suppressing function, PGE2 (in words) (PGE2 [1]; dihydrochloride) | Therapeutic ratio (%) (TNB-colitis; 10 mg/kg/day oral)
7.05 | 5.26 | COc1cc2nc(NCc3cccnc3)sc2c(OC)c1O [Example 1, 6-Hydroxy-5,7-dimethoxy-2-(3-pyridylmethyl)aminobenzothiazole] | enhanced at 1-10 μM; also recorded: suppressed at 100 μM | 10 | 55 | 19 |  |  |  | 
6.42 | 6.14 | CNc1nc2c(C(OC(C)=O)c3cccnc3)c(C)c(O)c(C)c2s1 (centres unmarked) [Example 9, {4-(6-Hydroxy-5,7-dimethyl-2-methylamino)benzothiazoyl}-(3-pyridyl)methyl acetate] | enhanced at 0.1-100 μM |  |  |  |  |  |  | 
 |  | CNc1nc2c(Cc3cccnc3)c(C)c(O)c(C)c2s1 [Example 10, 6-Hydroxy-5,7-dimethyl-2-methylamino-4-(3-pyridylmethyl)benzothiazole] | enhanced at 0.1-10 μM |  |  |  |  | no abnormality caused by the administration of the drug was observed |  | 
> 7.00 | 7.05 | CCCNc1nc2c(Cc3cccnc3)c(C)c(O)c(C)c2s1.Cl.Cl [Example 12, 6-Hydroxy-5,7-dimethyl-2-propylamino-4-(3-pyridylmethyl)benzothiazole dihydrochloride] |  |  |  |  |  |  | enhanced at 0.1-10 μM; also recorded: suppressed at 100 μM | 
6.60 | 5.27 | Cc1c(O)c(Cc2cccnc2)c2sc(N)nc2c1C.Cl.Cl [Example 15, 2-Amino-6-hydroxy-4,5-dimethyl-7-(3-pyridylmethyl)benzothiazole dihydrochloride] | enhanced at 0.1-100 μM |  |  |  |  |  |  | 
6.72 | 8.70 | Cc1c(O)c(C)c2sc(N)nc2c1Cc1cccnc1 [Example 18, 2-Amino-6-hydroxy-5,7-dimethyl-4-(3-pyridylmethyl)benzothiazole dihydrochloride] |  |  |  |  |  |  |  | 
6.77 | 6.96 | COc1c(O)c(C)c2sc(N)nc2c1Cc1cccnc1 [Example 20, 2-Amino-6-hydroxy-5-methoxy-7-methyl-4-(3-pyridylmethyl)benzothiazole dihydrochlorlde] | enhanced at 0.1-100 μM |  |  |  |  |  |  | 
6.77 | 5.89 | CNc1nc2c(Cc3cccnc3)c(OC)c(O)c(C)c2s1 [Example 21, 6-Hydroxy-5-methoxy-7-methyl-2-methylamino-4-(3-pyridylmethyl)benzothiazoledihydrochloride] |  |  |  |  |  |  |  | 
6.82 | 6.74 | CCc1c(O)c(OC)c(Cc2cccnc2)c2nc(N)sc12 [Example 22, 2-Amino-7-ethyl-6-hydroxy-5-methoxy-4-(3-pyridylmethyl)benzothiazole dihydrochloride] |  |  |  |  |  |  |  | 
> 7.00 | 6.48 | CCc1c(O)c(OC)c(Cc2cccnc2)c2nc(NC)sc12.Cl.Cl [Example 23, 7-Ethyl-6-hydroxy-5-methoxy-2-methylamino-4-(3-pyridylmethyl)benzothiazole dihydrochloride] |  |  |  |  |  |  | enhanced at 0.1-10 μM; also recorded: suppressed at 100 μM | 
 |  | C[C@]12C=CC(=O)C=C1CC[C@@H]1[C@@H]2[C@@H](O)C[C@@]2(C)[C@H]1CC[C@]2(O)C(=O)CO [prednisolone, reference compound] |  |  |  |  |  |  |  | 60

SMILES | pIC50 (LTB4 [4]) | pIC50 (TxB2 [5]) | Production suppressing function, PGE2 (in words) (PGE2 [1]) | Suppression ratio (%), PGE2 (PGE2 [2]) [%] | Suppression ratio (%), TxB2 (TxB2 [3]) [%] | Suppression ratio (%), LTB4 (LTB4 [6]) [%] | Therapeutic ratio (%) (TNB-colitis; 100 mg/kg/day oral) | abnormality caused by the administration (rats) | Production suppressing function, PGE2 (in words) (PGE2 [1]; dihydrochloride) | Therapeutic ratio (%) (TNB-colitis; 10 mg/kg/day oral)
Cc1c(O)c(C)c2sc(NCc3cccnc3)nc2c1C [Example 4, 6-Hydroxy-4,5,7-trimethyl-2-(3-pyridylmethyl)aminobenzothiazole] | > 7.00 | 5.71 | enhanced at 0.1-1 μM; also recorded: suppressed at 10 μM or above | 30 | 72 | 93 | 31 |  |  | 
Cc1cc(O)c(C)c2sc(NCc3cccnc3)nc12 [Example 5, 6-Hydroxy-4,7-dimethyl-2-(3-pyridylmethyl)aminobenzothiazole] | > 7.00 | 5.36 | enhanced at 0.1-10 μM; also recorded: suppressed at 100 μM | 30 | 36 | 94 | 53 |  |  | 
CCNc1nc2c(Cc3cccnc3)c(C)c(O)c(C)c2s1.Cl.Cl [Example 11, 2-Ethylamino-6-hydroxy-5,7-dimethyl-4-(3-pyridylmethyl)benzothiazole dihydrochloride] | > 7.00 | 7.00 |  | 0 | 85 | 94 | 41 |  | enhanced at 0.1-10 μM; also recorded: suppressed at 100 μM | 
CCNc1nc2c(C)c(Cc3cccnc3)c(O)c(C)c2s1 [Example 14, 2-Ethylamino-6-hydroxy-4,7-dimethyl-5-(3-pyridylmethyl)benzothiazole] | 6.64 | 6.19 | enhanced at 0.1-1 μM; also recorded: suppressed at 100 μM | 8 | 67 | 83 | 32 |  |  | 
CCNc1nc2c(C)c(C)c(O)c(Cc3cccnc3)c2s1 [Example 17, 2-Ethylamino-6-hydroxy-4,5-dimethyl-7-(3-Pyridylmethyl)benzothiazole] | > 7.00 | 5.70 | enhanced at 1 μM; also recorded: suppressed at 100 μM | 41 | 53 | 89 | 40 |  |  | 
